According to patent US7115750B1, “Melanin concentrating hormone antagonist” (Takeda Pharmaceutical Company Limited, priority 1999, dated 2006):

Test system: not given
Experiment: not given
Conditions: not given

| Structure (SMILES) | melting point |
| --- | --- |
| COc1ccc2[nH]c(C)c(CC(=O)Nc3ccc(CC(=O)NCCN(C)C)cc3)c2c1 [Example 188, N-[4-[2-[[2-(Dimethylamino)ethyl]amino]-2-oxoethyl]phenyl]-2-(5-methoxy-2-methyl-1H-indol-3-yl)acetamide] | 125 to 126 °C |
| CN(C)CCNC(=O)Cc1ccc(NC(=O)CCCc2c[nH]c3ccccc23)cc1 [Example 189, N-[4-[2-[[2-(Dimethylamino)ethyl]amino]-2-oxoethyl]phenyl]-4-(1H-indol-3-yl)butanamide] | 132 to 133 °C |
| CN(C)CCNC(=O)Cc1ccc(NC(=O)c2ccc(OCc3ccc(-c4ccccc4)cc3)cc2)cc1 [Example 191, 4-([1,1′-Biphenyl]-4-ylmethoxy)-N-[4-[2-[[2-(dimethylamino)ethyl]amino]-2-oxoethyl]phenyl]benzamide] | 204 to 208 °C |
| CN(C)CCNC(=O)Cc1ccc(NC(=O)c2ccc(NC(=O)c3ccccc3)cc2)cc1 [Example 192, 4-(Benzoylamino)-N-[4-[2-[[2-(dimethylamino)ethyl]amino]-2-oxoethyl]phenyl]benzamide] | 220 to 221 °C |
| COc1ccc(-c2ccc(C(=O)Nc3ccc(CC(=O)NCCN(C)C)cc3)cc2)cc1 [Example 193, N-[4-[2-[[2-(Dimethylamino)ethyl]amino]-2-oxoethyl]phenyl]-4′-methoxy[1,1′-biphenyl]-4-carboxamide] | 196 to 198 °C (dec.) |
| CN(C)CCNC(=O)Cc1ccc(NC(=O)c2ccc3c(c2)S(=O)(=O)c2ccccc2C3=O)cc1 [Example 194, N-[4-[2-[[2-(Dimethylamino)ethyl]amino]-2-oxoethyl]phenyl]-9,10,10-trioxo-9,10-dihydro-10λ^6-thioxanten-3-carboxamide] | 162 to 163 °C (dec.) |
| CN(C)CCNC(=O)Cc1ccc(NC(=O)c2ccc(OCc3ccccc3)cc2)cc1 [Example 195] | 190 to 192 °C (dec.) |
| CN(C)CCNC(=O)Cc1ccc(NC(=O)c2ccc(C(=O)c3ccccc3)cc2)cc1 [Example 196, 4-Benzoyl-N-[4-[2-[[2-(dimethylamino)ethyl]amino]-2-oxoethyl)phenyl]benzamide] | 173 to 175 °C (dec.) |
| Cc1cc(-c2ccncc2)c(C(=O)Nc2ccc(CC(=O)NCCN(C)C)cc2)[nH]1 [Example 197, N-[4-[2-[[2-(Dimethylamino)ethyl]amino]-2-oxoethyl]phenyl]-5-methyl-3-(4-pyridinyl)-1H-pyyrole-2-carboxamide] | 215 to 218 °C (dec.) |
| CN(C)CC1CCc2cc(NC(=O)N3CCC(c4ccc(F)cc4)CC3)ccc2C1O (stereo not shown) [Example 203, N-[6-[(Dimethylamino)methyl]-5-hydroxy-5,6,7,8-tetrahydro-2-naphthalenyl]-4-(4-fluorophenyl)-1-piperidinecarboxamide] | 160 to 163 °C |
| CC1=C(CN2CCCC2)CCc2cc(NC(=O)N3CCC(c4ccc(C)cc4)CC3)ccc21 [Example 238, 4-(4-Methylphenyl)-N-[5-methyl-6-(1-pyrrolidinylmethyl)-7,8-dihydro-2-naphthalenyl]-1-piperidinecarboxamide] | 159 to 160 °C |
| COc1ccc(C2CCN(C(=O)Nc3ccc4c(c3)CCC(CN3CCN(C)CC3)=C4)CC2)cc1 [Example 242, 4-(4-Methoxyphenyl)-N-[6-[(4-methyl-1-piperazinyl)methyl]-7,8-dihydro-2-naphthalenyl]-1-piperidinecarboxamide] | 198 to 200 °C |

Further lines, results first:

| melting point | Structure (SMILES) |
| --- | --- |
| 179 to 180 °C | COc1ccc(-c2ccc(C(=O)Nc3ccc4c(c3)CCC(CN3CCCC3)=C4C)cc2)cc1 [Example 200, 4′-Methoxy-N-[6-(1-pyrrolidinylmethyl)-5-methyl-7,8-dihydro-2-naphthalenyl][1,1′-biphenyl]-4-carboxamide] |
| 184 to 186 °C | O=C(Nc1ccc2c(c1)CCC(CCN1CCCC1)=C2)c1ccc(-c2ccccc2)cc1 [Example 204, N-[6-[2-(1-Pyrrolidinyl)ethyl]-7,8-dihydro-2-naphthalenyl][1,1′-biphenyl]-4-carboxamide] |
| 187 to 189 °C | O=C(Nc1ccc2c(c1)CCC(CCN1CCCC1)=C2)c1ccc(-c2ccc(F)cc2)cc1 [Example 205, 4′-Fluoro-N-[6-[2-(1-pyrrolidinyl)ethyl]-7,8-dihydro-2-naphthalenyl][1,1′-biphenyl]-4-carboxamide] |
| 207 to 209 °C | O=C(Nc1ccc2c(c1)CCC(CCN1CCCC1)=C2)c1ccc(-c2ccc(Cl)cc2)cc1 [Example 206, 4′-Chloro-N-[6-[2-(1-pyrrolidinyl)ethyl]-7,8-dihydro-2-naphthalenyl][1,1′-biphenyl]-4-carboxamide] |
| 183 to 185 °C | CN(C)CC1CCc2cc(NC(=O)c3ccc(-c4ccc(C#N)cc4)cc3)ccc2C1 (stereo not shown) [Example 207, 4′-Cyano-N-[6-[(dimethylamino)methyl]-5,6,7,8-tetrahydro-2-naphthalenyl][1,1′-biphenyl]-4-carboxamide] |
| 148 to 150 °C | CN(C)CCC1=Cc2ccc(NC(=O)c3ccc(-c4ccccc4)cc3)cc2CC1 [Example 208, N-[6-[2-(Dimethylamino)ethyl]-7,8-dihydro-2-naphthalenyl][1,1′-biphenyl]-4-carboxamide] |
| 112 to 114 °C | CN(C)CCC1CCc2cc(NC(=O)c3ccc(-c4ccccc4)cc3)ccc2C1 (stereo not shown) [Example 209, N-[6-[2-(Dimethylamino)ethyl]-5,6,7,8-tetrahydro-2-naphthalenyl][1,1′-biphenyl]-4-carboxamide] |
| 175 to 176 °C | CC1=C(CN2CCCC2)CCc2cc(NC(=O)c3ccc(-c4ccc(C)cc4)nc3)ccc21 [Example 228, 6-(4-Methylphenyl)-N-[5-methyl-6-(1-pyrrolidinylmethyl)-7,8-dihydro-2-naphthalenyl]nicotinamide] |
| 199 to 201 °C | CC1=C(CN2CCCC2)CCc2cc(NC(=O)c3ccc(-c4ccc(F)cc4)cc3)ccc21 [Example 229, 4′-Fluoro-N-[5-methyl-6-(1-pyrrolidinylmethyl)-7,8-dihydro-2-naphthalenyl][1,1′-biphenyl]-4-carboxamide] |
| 178 to 179 °C | CC1=C(CN2CCCC2)CCc2cc(NC(=O)c3ccc(-c4ccccc4)nc3)ccc21 [Example 233, N-[5-Methyl-6-(1-pyrrolidinylmethyl)-7,8-dihydro-2-naphthalenyl]-6-phenylnicotinamide] |
| 214 to 216 °C | Cc1ccc(C2CCN(C(=O)Nc3ccc4c(c3)CCC(CN3CCN(C)CC3)=C4)CC2)cc1 [Example 241, 4-(4-Methylphenyl)-N-[6-[(4-methyl-1-piperazinyl)methyl]-7,8-dihydro-2-naphthalenyl]-1-piperidinecarboxamide] |
| 209 to 211 °C | CN(C)CC1=Cc2ccc(NC(=O)c3ccc(-c4ccc(F)cc4)cc3)cc2C1 [Example 245, N-[2-[(Dimethylamino)methyl]-1H-inden-6-yl]-4′-fluoro[1,1′-biphenyl]-4-carboxamide] |
| 218 to 220 °C | CN(C)CC1=Cc2ccc(NC(=O)c3ccc(-c4ccc(Cl)cc4)cc3)cc2C1 [Example 246, 4′-Chloro-N-[2-[(dimethylamino)methyl]-1H-inden-6-yl][1,1′-biphenyl]-4-carboxamide] |
| > 250 °C | CN(C)CC1CCc2cc(NC(=O)c3ccc(-c4ccccc4)cc3)ccc2C1.Cl (stereo not shown) [Reference Example 25, N-[2-(N,N-Dimethylamino)methyl-6-tetralinyl]-4-biphenylylcarboxamide hydrochloride] |
| 247 to 252 °C (dec.) | O=C(NCCN1CCCCC1)c1ccc(NC(=O)c2ccc(-c3ccccc3)cc2)cc1 [compound 22, N-[4-[[2-(Piperidinoethyl)amino]carbonyl]phenyl] 4-biphenylylcarboxamide] |
| 241 to 245 °C (dec.) | O=C(NCCN1CCCC1)c1ccc(NC(=O)c2ccc(-c3ccccc3)cc2)cc1 [compound 23] |
| 164 to 166 °C | CN(C)CC1CCc2cc(NC(=O)c3ccc(-c4ccccc4)cc3)ccc2C1 (stereo not shown) [compound 24, N-[2-(N,N-Dimethylamino)methyl-6-tetralinyl]-4-biphenylylcarboxamide] |

Biological target: SLC-1 expressing CHO cell membrane fractions (MCH receptor) (UniProt Q99705)
Experiment: Determination of antagonist activity using GTPgS binding assay
Format: biochemical, human and rat (not specified for the table)
Conditions: [35S]-GTPγS binding stimulated by MCH, SLC-1 expressing CHO cell membrane 20 μg/ml, 1 hour; read-out: Inhibition Activity (IC50 value: nM)
Procedure: Membrane fraction was prepared by the following method, using the human SLC-1 expressing CHO cell clone 57 obtained in Reference Example 1-10, and the rat SLC-1 expressing CHO cell clone 44 obtained in Reference Example 1-4.
The human and rat SLC-1 expressing CHO cells (1×10^8) were scraped in buffer saline phosphate (pH 7.4) to which 5 mM EDTA (ethylenediaminetetraacetic acid) had been added, and centrifuged. 10 ml of homogenized buffer (10 mM NaHCO3, 5 mM EDTA, pH 7.5) was added to the cell pellets, and they were homogenized using a Polytron homogenizer. […]
After this reaction mixture was allowed to react for 1 hour under stirring, it was filtered under vacuum using a glass filter (GF-C), then the filter was washed 3 times with 300 μl of washing solution (50 mM Tris-HCl buffer solution pH 7.5). […] of liquid scintillator was added to the glass filter, and residual radioactivity was determined using a liquid scintillation counter.
The IC50 value of the compound was calculated from the binding inhibition rate (%), based on the definition that the binding inhibition rate (%)=(radioactivity when compound and MCH were added−radioactivity when DMSO solution was added)/(radioactivity when MCH was added−radioactivity when DMSO solution was added)×100.

| IC50 [nM] | Structure (SMILES) |
| --- | --- |
| 40 | COc1ccc(-c2ccc(C(=O)Nc3ccc4c(c3)CCC(CN(C)C)C4)cc2)cc1 (stereo not shown) [Example 1, N-[2-(N,N-Dimethylamino)methyl-6-tetralinyl]-(4′-methoxybiphenyl-4-yl)carboxamide] |
| 90 | CN(C)CC1CCc2cc(NC(=O)c3ccc(-c4ccccc4)cc3)ccc2C1.Cl (stereo not shown) [Reference Example 25, N-[2-(N,N-Dimethylamino)methyl-6-tetralinyl]-4-biphenylylcarboxamide hydrochloride] |
